Tests used:
ECHCG (Barnyardgrass) = assay: Postemergence herbicidal evaluation; assay type: in vivo, Echinochloa crus-galli; settings: postemergence
In short: (§1)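 Visual 0–9 rating versus control (stand, vigor, malformation, size, chlorosis, overall appearance), taken four to five weeks post-spray. Two-week-old seedlings received roughly 0.0156–0.500 kg/ha active in acetone/water (50/50) with 0.5% TWEEN 20 via nozzle at 40 psi.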

SETVI (Foxtail, Green) = assay: Preemergence herbicidal evaluation; assay type: in vivo, Setaria viridis; settings: rated 4-5 weeks after treatment
In short: (§2)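 Rating at 4–5 wk post-spray on a 0–9 visual scale vs control. Application: aqueous acetone, ~0.0156–0.500 kg/ha, to soil surface after seeding, preemergence.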

[1] = tested on: SAGPY (Arrowhead (Pygmaea)); assay: Preemergence weed control under flooded paddy conditions; assay type: in vivo, Sagittaria pygmaea; settings: rated 3-4 weeks after treatment
In short: (§3)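 Values are visual 0-9 scores against a control for a preemergence application into paddy flood water at about 0.0313 to 0.500 kg/ha. Greenhouse duration was three to four weeks.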

GALAP (Galium) = assay: Preemergence herbicidal evaluation; assay type: in vivo, Galium aparine; settings: rated 4-5 weeks after treatment
In short: as §2

MOOVA (Monochoria) = assay: Preemergence weed control under flooded paddy conditions; assay type: in vivo, Monochoria vaginalis; settings: rated 3-4 weeks after treatment
In short: as §3

CYPIR (Rice Flatsedge) = assay: as above; assay type: in vivo, Cyperus iria; settings: rated 3-4 weeks after treatment
In short: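 Silt loam, seeds in top 0.5 cm; flood held 1.5-3 cm; test cpd as acetone/water 50/50 into flood water, ~0.0313-0.500 kg/ha a.i.; greenhouse 3-4 wk; visual 0-9 score vs control.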

[2] = tested on: TRZAWR (Wheat, Winter, cv Riband); assay: Preemergence herbicidal evaluation; assay type: in vivo, Triticum aestivum; settings: rated 4-5 weeks after treatment
In short: as §2

ZEAMX (Corn, Field) = assay: Preemergence herbicidal evaluation; assay type: in vivo, Zea mays; settings: rated 4-5 weeks after treatment
In short: as §2

[3] = tested on: CHEAL (Lambsquarters, Common); assay: Postemergence herbicidal evaluation; assay type: in vivo, Chenopodium album; settings: postemergence
In short: as §1

[4] = tested on: GLXMAW (Soybean, Williams); assay: Preemergence herbicidal evaluation; assay type: in vivo, Glycine max, (L.) Merr. cv Williams; settings: rated 4-5 weeks after treatment
In short: as §2

ORYSAT (Rice, Tebonnet) [5] = assay: Postemergence herbicidal evaluation; assay type: in vivo, Oryza sativa, (L.) Tebonnet; settings: postemergence
In short: as §1

CASOB (Sicklepod) = assay: Postemergence herbicidal evaluation; assay type: in vivo, Cassia obtusifolia; settings: postemergence
In short: as §1

ORYSAT (Rice, Tebonnet) [6] = assay: Preemergence herbicidal evaluation; assay type: in vivo, Oryza sativa, (L.) Tebonnet; settings: rated 4-5 weeks after treatment
In short: as §2

CCOC(=O)CN1C(=O)C(C(=O)OCC)SC1=Nc1cc(-n2c(=O)cc(C(F)(F)F)n(C)c2=O)c(F)cc1Cl (stereo not shown) [Compound 127, 5-Carboxy-2-{{2-chloro-5-[3,6-dihydro-3-methyl-2,6-dioxo-4-(trifluoromethyl)-1(2H)-pyrimidinyl]-4-fluorophenyl}imino}-4-oxo-3-thiazolidineacetic acid, diethyl ester]
0.5: herbicidal rating ORYSAT (ORYSAT (Rice, Tebonnet) [5]; rate 0.0156 kg/ha) | herbicidal rating ORYSAT (ORYSAT (Rice, Tebonnet) [5]; rate 0.0313 kg/ha) | herbicidal rating ORYSAT (ORYSAT (Rice, Tebonnet) [5]; rate 0.0625 kg/ha)
8.0: Preemergence herbicidal rating ZEAMX (ZEAMX (Corn, Field); rate 0.5000 kg/ha)
9.0: Preemergence herbicidal rating SETVI (SETVI (Foxtail, Green); rate 0.1250 kg/ha) | Preemergence herbicidal rating SETVI (SETVI (Foxtail, Green); rate 0.2500 kg/ha) | Preemergence herbicidal rating SETVI (SETVI (Foxtail, Green); rate 0.5000 kg/ha) | Preemergence herbicidal rating GALAP (GALAP (Galium); rate 0.5000 kg/ha) | herbicidal rating CHEAL ([3]; rate 0.0625 kg/ha) | herbicidal rating CHEAL ([3]; rate 0.1250 kg/ha)
0.0: herbicidal rating ECHCG (ECHCG (Barnyardgrass); rate 0.0156 kg/ha) | herbicidal rating ECHCG (ECHCG (Barnyardgrass); rate 0.0313 kg/ha) | Preemergence herbicidal rating SETVI (SETVI (Foxtail, Green); rate 0.0313 kg/ha) | Preemergence herbicidal rating SETVI (SETVI (Foxtail, Green); rate 0.0625 kg/ha) | herbicidal effect rating, SAGPY ([1]; 0.0313 kg/ha) | herbicidal effect rating, SAGPY ([1]; 0.0625 kg/ha) | herbicidal effect rating, SAGPY ([1]; 0.1250 kg/ha) | Preemergence herbicidal rating GALAP (GALAP (Galium); rate 0.0313 kg/ha) | Preemergence herbicidal rating TRZAWR ([2]; rate 0.0313 kg/ha) | Preemergence herbicidal rating TRZAWR ([2]; rate 0.0625 kg/ha) | Preemergence herbicidal rating TRZAWR ([2]; rate 0.1250 kg/ha) | Preemergence herbicidal rating TRZAWR ([2]; rate 0.2500 kg/ha) | Preemergence herbicidal rating ZEAMX (ZEAMX (Corn, Field); rate 0.0313 kg/ha) | Preemergence herbicidal rating ZEAMX (ZEAMX (Corn, Field); rate 0.0625 kg/ha) | Preemergence herbicidal rating ZEAMX (ZEAMX (Corn, Field); rate 0.1250 kg/ha) | Preemergence herbicidal rating GLXMAW ([4]; rate 0.0313 kg/ha) | Preemergence herbicidal rating GLXMAW ([4]; rate 0.0625 kg/ha) | Preemergence herbicidal rating GLXMAW ([4]; rate 0.1250 kg/ha) | herbicidal rating CASOB (CASOB (Sicklepod); rate 0.0156 kg/ha) | herbicidal rating CASOB (CASOB (Sicklepod); rate 0.0313 kg/ha) | Preemergence herbicidal rating ORYSAT (ORYSAT (Rice, Tebonnet) [6]; rate 0.0313 kg/ha) | Preemergence herbicidal rating ORYSAT (ORYSAT (Rice, Tebonnet) [6]; rate 0.0625 kg/ha) | Preemergence herbicidal rating ORYSAT (ORYSAT (Rice, Tebonnet) [6]; rate 0.1250 kg/ha) | Preemergence herbicidal rating ORYSAT (ORYSAT (Rice, Tebonnet) [6]; rate 0.2500 kg/ha)
4.0: herbicidal effect rating, CYPIR (CYPIR (Rice Flatsedge); 0.1250 kg/ha) | herbicidal effect rating, CYPIR (CYPIR (Rice Flatsedge); 0.2500 kg/ha) | Preemergence herbicidal rating ZEAMX (ZEAMX (Corn, Field); rate 0.2500 kg/ha) | herbicidal rating CHEAL ([3]; rate 0.0156 kg/ha) | herbicidal rating CHEAL ([3]; rate 0.0313 kg/ha) | Preemergence herbicidal rating GLXMAW ([4]; rate 0.2500 kg/ha) | Preemergence herbicidal rating GLXMAW ([4]; rate 0.5000 kg/ha)
1.0: herbicidal rating ECHCG (ECHCG (Barnyardgrass); rate 0.0625 kg/ha) | herbicidal rating CASOB (CASOB (Sicklepod); rate 0.0625 kg/ha) | herbicidal rating CASOB (CASOB (Sicklepod); rate 0.1250 kg/ha)
3.0: herbicidal rating ECHCG (ECHCG (Barnyardgrass); rate 0.1250 kg/ha) | herbicidal effect rating, SAGPY ([1]; 0.2500 kg/ha) | Preemergence herbicidal rating GALAP (GALAP (Galium); rate 0.0625 kg/ha) | Preemergence herbicidal rating GALAP (GALAP (Galium); rate 0.1250 kg/ha) | herbicidal effect rating, MOOVA (MOOVA (Monochoria); 0.0313 kg/ha) | herbicidal effect rating, MOOVA (MOOVA (Monochoria); 0.0625 kg/ha) | Preemergence herbicidal rating ORYSAT (ORYSAT (Rice, Tebonnet) [6]; rate 0.5000 kg/ha)
2.0: herbicidal effect rating, CYPIR (CYPIR (Rice Flatsedge); 0.0313 kg/ha) | herbicidal effect rating, CYPIR (CYPIR (Rice Flatsedge); 0.0625 kg/ha)
2.5: herbicidal rating ORYSAT (ORYSAT (Rice, Tebonnet) [5]; rate 0.1250 kg/ha)
7.0: Preemergence herbicidal rating GALAP (GALAP (Galium); rate 0.2500 kg/ha) | herbicidal effect rating, MOOVA (MOOVA (Monochoria); 0.2500 kg/ha) | Preemergence herbicidal rating TRZAWR ([2]; rate 0.5000 kg/ha)
5.0: herbicidal effect rating, MOOVA (MOOVA (Monochoria); 0.1250 kg/ha)

Cn1c(C(F)(F)F)cc(=O)n(-c2cc(N=C3SCC(=O)N3CC(=O)OCC3CC3)c(Cl)cc2F)c1=O [Compound 124, Cyclopropylmethyl 2-{{2-chloro-5-[3,6-dihydro-3-methyl-2,6-dioxo-4-(trifluoromethyl)-1(2H)-pyrimidinyl]-4-fluorophenyl}imino}-4-oxo-3-thiazolidineacetate]
7.0: Preemergence herbicidal rating GALAP (GALAP (Galium); rate 0.5000 kg/ha) | herbicidal effect rating, MOOVA (MOOVA (Monochoria); 0.2500 kg/ha)
5.0: herbicidal rating ECHCG (ECHCG (Barnyardgrass); rate 0.0625 kg/ha) | herbicidal effect rating, SAGPY ([1]; 0.2500 kg/ha)
6.0: Preemergence herbicidal rating GALAP (GALAP (Galium); rate 0.2500 kg/ha) | herbicidal effect rating, CYPIR (CYPIR (Rice Flatsedge); 0.2500 kg/ha)
1.0: Preemergence herbicidal rating ZEAMX (ZEAMX (Corn, Field); rate 0.5000 kg/ha)
4.0: Preemergence herbicidal rating SETVI (SETVI (Foxtail, Green); rate 0.2500 kg/ha) | herbicidal effect rating, SAGPY ([1]; 0.1250 kg/ha)
2.0: herbicidal rating CASOB (CASOB (Sicklepod); rate 0.0156 kg/ha) | herbicidal rating CASOB (CASOB (Sicklepod); rate 0.0313 kg/ha) | Preemergence herbicidal rating ORYSAT (ORYSAT (Rice, Tebonnet) [6]; rate 0.5000 kg/ha)
0.0: Preemergence herbicidal rating SETVI (SETVI (Foxtail, Green); rate 0.0156 kg/ha) | Preemergence herbicidal rating SETVI (SETVI (Foxtail, Green); rate 0.0313 kg/ha) | Preemergence herbicidal rating SETVI (SETVI (Foxtail, Green); rate 0.0625 kg/ha) | Preemergence herbicidal rating SETVI (SETVI (Foxtail, Green); rate 0.1250 kg/ha) | herbicidal effect rating, SAGPY ([1]; 0.0313 kg/ha) | herbicidal effect rating, SAGPY ([1]; 0.0625 kg/ha) | Preemergence herbicidal rating GALAP (GALAP (Galium); rate 0.0156 kg/ha) | Preemergence herbicidal rating GALAP (GALAP (Galium); rate 0.0313 kg/ha) | Preemergence herbicidal rating GALAP (GALAP (Galium); rate 0.0625 kg/ha) | Preemergence herbicidal rating GALAP (GALAP (Galium); rate 0.1250 kg/ha) | herbicidal effect rating, MOOVA (MOOVA (Monochoria); 0.0313 kg/ha) | herbicidal effect rating, MOOVA (MOOVA (Monochoria); 0.0625 kg/ha) | herbicidal effect rating, MOOVA (MOOVA (Monochoria); 0.1250 kg/ha) | herbicidal effect rating, CYPIR (CYPIR (Rice Flatsedge); 0.0313 kg/ha) | herbicidal effect rating, CYPIR (CYPIR (Rice Flatsedge); 0.0625 kg/ha) | herbicidal effect rating, CYPIR (CYPIR (Rice Flatsedge); 0.1250 kg/ha) | Preemergence herbicidal rating TRZAWR ([2]; rate 0.0156 kg/ha) | Preemergence herbicidal rating TRZAWR ([2]; rate 0.0313 kg/ha) | Preemergence herbicidal rating TRZAWR ([2]; rate 0.0625 kg/ha) | Preemergence herbicidal rating TRZAWR ([2]; rate 0.1250 kg/ha) | Preemergence herbicidal rating TRZAWR ([2]; rate 0.2500 kg/ha) | Preemergence herbicidal rating TRZAWR ([2]; rate 0.5000 kg/ha) | Preemergence herbicidal rating ZEAMX (ZEAMX (Corn, Field); rate 0.0156 kg/ha) | Preemergence herbicidal rating ZEAMX (ZEAMX (Corn, Field); rate 0.0313 kg/ha) | Preemergence herbicidal rating ZEAMX (ZEAMX (Corn, Field); rate 0.0625 kg/ha) | Preemergence herbicidal rating ZEAMX (ZEAMX (Corn, Field); rate 0.1250 kg/ha) | Preemergence herbicidal rating ZEAMX (ZEAMX (Corn, Field); rate 0.2500 kg/ha) | Preemergence herbicidal rating GLXMAW ([4]; rate 0.0156 kg/ha) | Preemergence herbicidal rating GLXMAW ([4]; rate 0.0313 kg/ha) | Preemergence herbicidal rating GLXMAW ([4]; rate 0.0625 kg/ha) | Preemergence herbicidal rating GLXMAW ([4]; rate 0.1250 kg/ha) | Preemergence herbicidal rating GLXMAW ([4]; rate 0.2500 kg/ha) | Preemergence herbicidal rating ORYSAT (ORYSAT (Rice, Tebonnet) [6]; rate 0.0156 kg/ha) | Preemergence herbicidal rating ORYSAT (ORYSAT (Rice, Tebonnet) [6]; rate 0.0313 kg/ha) | Preemergence herbicidal rating ORYSAT (ORYSAT (Rice, Tebonnet) [6]; rate 0.0625 kg/ha) | Preemergence herbicidal rating ORYSAT (ORYSAT (Rice, Tebonnet) [6]; rate 0.1250 kg/ha) | Preemergence herbicidal rating ORYSAT (ORYSAT (Rice, Tebonnet) [6]; rate 0.2500 kg/ha)
3.0: herbicidal rating ECHCG (ECHCG (Barnyardgrass); rate 0.0156 kg/ha) | herbicidal rating ECHCG (ECHCG (Barnyardgrass); rate 0.0313 kg/ha) | Preemergence herbicidal rating GLXMAW ([4]; rate 0.5000 kg/ha) | herbicidal rating ORYSAT (ORYSAT (Rice, Tebonnet) [5]; rate 0.0313 kg/ha) | herbicidal rating ORYSAT (ORYSAT (Rice, Tebonnet) [5]; rate 0.0625 kg/ha) | herbicidal rating CASOB (CASOB (Sicklepod); rate 0.0625 kg/ha)
9.0: Preemergence herbicidal rating SETVI (SETVI (Foxtail, Green); rate 0.5000 kg/ha) | herbicidal rating CHEAL ([3]; rate 0.0156 kg/ha) | herbicidal rating CHEAL ([3]; rate 0.0313 kg/ha) | herbicidal rating CHEAL ([3]; rate 0.0625 kg/ha)
3.3: herbicidal rating ORYSAT (ORYSAT (Rice, Tebonnet) [5]; rate 0.0156 kg/ha)
